Series [1] concerns the target T1, BPLF1 1–246 (Epstein-Barr virus, UniProt P03186).
Series [2] addresses T1, BPLF1 1–246. The series is described as follows: biochemical.
In series [3] the target is T1, BPLF1 1–246. Briefly: K63-linked ubiquitin chain cleavage assay. The class given is biochemical, Epstein Barr Virus (EBV). As to conditions: 10 μM inhibitor, 25 nM BPLF1 1–246, 2 μg K63-linked chains, overnight 37 °C, SDS gel.
Series [4] has as its system 293 EBV+ cells. The series is described as follows: Cell viability by trypan blue exclusion. As to conditions: 48 h, concentrations up to 10 μM.
Series [5] deals with EBV. Briefly: EBV infectious virus production, titered on Raji cells. As to conditions: 293 EBV+ cells induced with BZLF1, 48 h, at the concentrations tested.
The target of series [6] is PLPro (Severe acute respiratory syndrome coronavirus, UniProt P0C6X7). The series is described as follows: biochemical.
The target in series [7] is T2, UCH-L1 (Homo sapiens, UniProt P09936).
T2 sequence (P09936 1-223): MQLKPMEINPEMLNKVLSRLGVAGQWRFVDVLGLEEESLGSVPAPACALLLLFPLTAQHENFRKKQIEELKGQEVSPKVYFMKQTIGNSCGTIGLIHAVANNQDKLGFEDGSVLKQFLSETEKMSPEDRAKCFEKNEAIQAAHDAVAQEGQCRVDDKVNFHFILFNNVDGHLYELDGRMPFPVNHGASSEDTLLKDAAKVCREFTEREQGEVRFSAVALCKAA
Briefly: Suramin selectivity, Ub-Rhodamine 110 assay. The class given is biochemical.

For series [8], the target named is Bap1 (Homo sapiens, UniProt Q92560). Briefly: Suramin selectivity, Ub-Rhodamine 110 assay. In kind it is biochemical.
Chain of Bap1 (Q92560 whole entry): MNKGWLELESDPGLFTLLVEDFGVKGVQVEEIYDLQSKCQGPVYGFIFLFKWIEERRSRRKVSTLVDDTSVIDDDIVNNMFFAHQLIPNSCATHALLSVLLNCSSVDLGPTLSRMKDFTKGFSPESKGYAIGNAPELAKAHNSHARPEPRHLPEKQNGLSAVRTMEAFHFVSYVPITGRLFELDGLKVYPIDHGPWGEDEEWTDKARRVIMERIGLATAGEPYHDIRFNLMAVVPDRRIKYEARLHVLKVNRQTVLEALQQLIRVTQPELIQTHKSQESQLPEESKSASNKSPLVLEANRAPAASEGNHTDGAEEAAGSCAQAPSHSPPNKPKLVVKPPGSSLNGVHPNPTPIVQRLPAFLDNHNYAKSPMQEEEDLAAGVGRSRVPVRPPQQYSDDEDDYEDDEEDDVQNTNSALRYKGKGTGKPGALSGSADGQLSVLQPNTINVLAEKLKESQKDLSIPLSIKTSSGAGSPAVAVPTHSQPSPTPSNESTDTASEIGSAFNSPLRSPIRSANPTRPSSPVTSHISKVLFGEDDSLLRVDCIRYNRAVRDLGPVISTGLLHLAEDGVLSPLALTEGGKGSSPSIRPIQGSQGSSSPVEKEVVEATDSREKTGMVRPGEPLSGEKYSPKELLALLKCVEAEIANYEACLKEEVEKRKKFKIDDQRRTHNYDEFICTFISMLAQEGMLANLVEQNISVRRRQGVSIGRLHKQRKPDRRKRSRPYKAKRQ
The target of series [9] is T3, Cezanne (Homo sapiens, UniProt Q6GQQ9).
T3 sequence (Q6GQQ9 1-843): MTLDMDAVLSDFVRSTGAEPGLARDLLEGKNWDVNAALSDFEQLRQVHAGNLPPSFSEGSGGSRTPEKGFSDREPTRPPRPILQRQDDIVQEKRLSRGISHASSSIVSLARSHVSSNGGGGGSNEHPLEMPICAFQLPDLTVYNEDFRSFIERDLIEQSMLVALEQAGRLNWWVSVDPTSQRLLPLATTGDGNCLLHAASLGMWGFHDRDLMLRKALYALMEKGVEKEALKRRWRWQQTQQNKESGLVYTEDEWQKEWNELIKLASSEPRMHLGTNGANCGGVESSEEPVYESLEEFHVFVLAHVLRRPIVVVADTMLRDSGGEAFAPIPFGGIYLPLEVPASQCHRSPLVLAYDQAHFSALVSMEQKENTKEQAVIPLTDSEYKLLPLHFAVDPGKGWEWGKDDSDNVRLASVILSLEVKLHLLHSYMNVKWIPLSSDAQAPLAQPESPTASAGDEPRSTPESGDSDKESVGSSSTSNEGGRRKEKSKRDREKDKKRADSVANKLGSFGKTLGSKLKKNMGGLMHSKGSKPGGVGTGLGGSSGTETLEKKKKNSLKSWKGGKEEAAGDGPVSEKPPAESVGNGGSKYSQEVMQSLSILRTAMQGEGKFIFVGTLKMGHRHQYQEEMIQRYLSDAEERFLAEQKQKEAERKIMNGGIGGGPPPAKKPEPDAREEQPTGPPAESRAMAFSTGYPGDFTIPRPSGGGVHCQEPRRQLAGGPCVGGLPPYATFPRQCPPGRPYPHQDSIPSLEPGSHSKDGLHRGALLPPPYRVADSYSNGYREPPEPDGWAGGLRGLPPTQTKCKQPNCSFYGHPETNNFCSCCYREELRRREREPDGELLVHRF
Briefly: Suramin selectivity, Ub-Rhodamine 110 assay. In kind it is biochemical.

The target in series [10] is T4, JosD2 (Homo sapiens, UniProt Q8TAC2).
T4 sequence (Q8TAC2 1-188): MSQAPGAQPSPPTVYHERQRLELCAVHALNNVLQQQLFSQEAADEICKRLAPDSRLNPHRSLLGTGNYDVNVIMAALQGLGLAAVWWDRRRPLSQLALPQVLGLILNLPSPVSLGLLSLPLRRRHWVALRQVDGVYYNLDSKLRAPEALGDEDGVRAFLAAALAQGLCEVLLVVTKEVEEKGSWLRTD
Briefly: Suramin selectivity, Ub-Rhodamine 110 assay. The class given is biochemical.

Series [11] deals with T5, UCH-L5 (Homo sapiens, UniProt Q9Y5K5).
T5 sequence (Q9Y5K5 1-329): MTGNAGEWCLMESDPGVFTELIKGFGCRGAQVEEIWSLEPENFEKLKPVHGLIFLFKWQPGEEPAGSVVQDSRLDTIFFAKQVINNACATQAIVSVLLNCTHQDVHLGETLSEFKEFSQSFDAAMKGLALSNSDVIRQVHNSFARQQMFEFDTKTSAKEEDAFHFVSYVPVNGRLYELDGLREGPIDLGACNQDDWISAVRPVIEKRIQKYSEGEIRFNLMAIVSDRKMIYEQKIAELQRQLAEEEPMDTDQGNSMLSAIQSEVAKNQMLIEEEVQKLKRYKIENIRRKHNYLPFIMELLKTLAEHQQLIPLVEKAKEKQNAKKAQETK
The series is described as follows: Suramin selectivity, Ub-Rhodamine 110 assay. In kind it is biochemical.

Series [12] has as its target T6, USP8c (Homo sapiens, UniProt P40818).
T6 sequence (P40818 777-1109 limits assumed): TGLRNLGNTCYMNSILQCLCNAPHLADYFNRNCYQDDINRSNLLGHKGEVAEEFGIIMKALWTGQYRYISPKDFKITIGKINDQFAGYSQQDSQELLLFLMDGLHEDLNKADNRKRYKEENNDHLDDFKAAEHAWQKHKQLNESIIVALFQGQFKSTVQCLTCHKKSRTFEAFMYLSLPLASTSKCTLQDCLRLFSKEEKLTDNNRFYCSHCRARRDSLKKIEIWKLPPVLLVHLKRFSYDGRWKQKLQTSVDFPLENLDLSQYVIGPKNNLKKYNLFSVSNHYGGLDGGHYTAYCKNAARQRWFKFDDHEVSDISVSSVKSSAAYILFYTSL
The series is described as follows: Suramin selectivity, Ub-Rhodamine 110 assay. The class given is biochemical.

Series [13] concerns the target KSHV ORF64 1–205 N terminal fragment (Human herpesvirus 8 type P, UniProt Q2HR64). Briefly: ORF64 DUB activity in Ub-Rhodamine 110 assay. The conditions noted are these: 10 μM suramin, 30 minutes with Ub-Rhodamine 110.
Series [14] addresses T7, Atax3L (Homo sapiens, UniProt Q9H3M9).
T7 sequence (Q9H3M9 1-355): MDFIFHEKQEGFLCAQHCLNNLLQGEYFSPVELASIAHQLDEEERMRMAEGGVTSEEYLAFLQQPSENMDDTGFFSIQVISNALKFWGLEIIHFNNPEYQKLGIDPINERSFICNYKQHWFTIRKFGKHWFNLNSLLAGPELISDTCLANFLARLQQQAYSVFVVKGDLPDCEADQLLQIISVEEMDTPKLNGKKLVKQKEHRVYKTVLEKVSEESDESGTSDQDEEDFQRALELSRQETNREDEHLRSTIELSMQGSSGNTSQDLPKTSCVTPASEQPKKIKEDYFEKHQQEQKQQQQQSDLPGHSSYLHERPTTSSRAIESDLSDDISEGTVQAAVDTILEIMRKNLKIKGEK
The series is described as follows: Suramin selectivity, Ub-Rhodamine 110 assay. In kind it is biochemical.

The subject of series [15] is KSHV. The conditions noted are these: suramin up to 10 μM; for KSHV genome copy number: qPCR of supernatant of reactivated cells.
For series [16], the system named is pool of cellular DUBs (293T cell lysate). Briefly: Cellular DUB activity in 293T total cell lysate, Ub-Rhodamine 110. In kind it is biochemical. As to conditions: 10 μM suramin, 293T lysate.
Series [17] has as its target T1, BPLF1 1–246. Briefly: Suramin selectivity, Ub-Rhodamine 110 assay. In kind it is biochemical, Epstein Barr Virus (EBV).

Structures can show the parent of a compound that is named as a salt. Where two headings read alike, the source gives them in different places.

T1 sequence (P03186 1-246): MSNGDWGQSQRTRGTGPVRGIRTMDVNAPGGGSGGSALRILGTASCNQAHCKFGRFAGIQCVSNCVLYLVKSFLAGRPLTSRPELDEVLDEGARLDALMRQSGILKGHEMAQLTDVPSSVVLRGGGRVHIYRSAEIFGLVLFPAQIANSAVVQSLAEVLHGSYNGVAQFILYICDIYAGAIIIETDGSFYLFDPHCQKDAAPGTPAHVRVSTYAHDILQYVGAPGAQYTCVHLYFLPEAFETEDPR
Chain of KSHV ORF64 1–205 N terminal fragment (Q2HR64 1-205): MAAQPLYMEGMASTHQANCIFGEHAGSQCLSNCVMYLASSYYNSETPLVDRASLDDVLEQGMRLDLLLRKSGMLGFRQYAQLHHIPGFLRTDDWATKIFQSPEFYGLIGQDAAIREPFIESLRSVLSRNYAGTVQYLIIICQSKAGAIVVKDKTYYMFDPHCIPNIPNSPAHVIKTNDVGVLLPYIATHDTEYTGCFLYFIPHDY

Broadly, the IC50 is the concentration needed to halve the response being measured. A high value points to weaker potency in that assay. Regarding `NC(Cc1cc(O)c(O)cc1O)C(=O)O` (racemic) [6-Hyd roxy-DL-DOPA], the half-inhibitory concentration (IC50) in series [1] was over 10 µM.
As to `O=C(O)C1=CC(=C(c2ccc(O)c(C(=O)O)c2)c2ccc(O)c(C(=O)O)c2)C=CC1=O` [Aurintricarboxylic acid], the midpoint of inhibition in series [2], the IC50, lay at 3.3 µM.
In the case of `OC[C@H]1O[C@H]([S-])[C@H](O)[C@@H](O)[C@@H]1O.[Au+]` [Aurothioglucose], inhibition in series [1] was half-maximal at 2.5 µM (IC50). In addition, the “inhibition of K63-linked ubiquitin chain cleavage” value in series [3] is “inhibited K63-linked chain cleavage”. Besides, the “cell growth or viability” value in [4] is “not inhibit cell growth or viability”. In series [5], the “infectious virus production (in words)” value is reported as “did not result in decreased virus production”.
`Cc1cc2c(C(C)C)c(O)c(O)c(C=O)c2c(O)c1-c1c(C)cc2c(C(C)C)c(O)c(O)c(C=O)c2c1O` [Gossypol]: inhibition in series [2] was half-maximal at 3 µM (IC50).
The molecule `CN(N=O)c1ccc(O)c(O)c1` [Me-3,4-dephostatin] returned an IC50 in series [1] of over 10 µM.
In [1], `O=C(Nc1cccc(C(=O)Nc2ccc(S(=O)(=O)O)c3cc(S(=O)(=O)O)cc(S(=O)(=O)O)c23)c1)Nc1cccc(C(=O)Nc2ccc(S(=O)(=O)O)c3cc(S(=O)(=O)O)cc(S(=O)(=O)O)c23)c1` [NF 023] showed an IC50 of 6.1 µM.
In [1], `O=C1C(SCCO)=C(SCCO)C(=O)c2ccccc21` [NSC 95397] yielded an IC50 of 4.8 µM. The “inhibition of K63-linked ubiquitin chain cleavage” value in series [3] is reported as “inhibited K63-linked chain cleavage”.
In the case of `Cc1nc(N=Nc2cc(S(=O)(=O)O)c3cc([N+](=O)[O-])cc(S(=O)(=O)O)c3c2)c(COP(=O)(O)O)c(C=O)c1O` [PPNDS tetrasodium], the IC50 in series [1] was over 10 µM.
Molecule `C[C@]12C=CC(=O)C=C1CC[C@@H]1C2=CC[C@]2(C)[C@@H](C(=O)CN3CCN(c4cc(N5CCCC5)nc(N5CCCC5)n4)CC3)CC[C@@H]12` [U-74389G maleate] showed an IC50 in series [1] of 3.4 µM.
As for `CC1(C)CCC2=C(O1)c1ccccc1C(=O)C2=O` [beta-lapachone], the “inhibition of K63-linked ubiquitin chain cleavage” value in series [3] is recorded as “inhibited K63-linked chain cleavage”. This molecule registered an IC50 in series [2] of 2.5 µM.
On to `Cc1ccc(C(=O)Nc2ccc(S(=O)(=O)O)c3cc(S(=O)(=O)O)cc(S(=O)(=O)O)c23)cc1NC(=O)c1cccc(NC(=O)Nc2cccc(C(=O)Nc3cc(C(=O)Nc4ccc(S(=O)(=O)O)c5cc(S(=O)(=O)O)cc(S(=O)(=O)O)c45)ccc3C)c2)c1` [suramin, Suramin sodium salt], for which the “inhibition of K63-linked ubiquitin chain cleavage” value in series [3] is listed as “inhibited K63-linked chain cleavage”. In addition, the IC50 in [6] came to 3.2 µM; in series [7], 3.6 µM; in series [8], 3.4 µM; in [9], 1.6 µM; in series [10], 28 µM; in series [11] it was 1.5 µM. Besides, the IC50 in [2] was determined as 0.98 µM; in series [12] it was 3 µM; in series [14] it was 2.6 µM; in series [17], 3.3 µM. In series [13], the “decrease in ORF64 DUB activity” value is over 80%. Further, the “KSHV reactivation from latency” value in series [15] (% reactivation of latently infected cells) is “no significant effect”. Also, the “KSHV genome copy number” value is “no significant effect” in series [15] and “does not inhibit genome copy production” in series [15] (listed as Suramin). Further, the “KSHV infectious virus production” value in [15] (supernatants 72 h post dox, infection of naïve 293 cells) is “no significant effect”. In addition, in series [16], the “inhibition of the pool of cellular DUBs” value is given as “about 50%”.
Consider Ub-aldehyde, for which the “inhibition of BPLF1 1–246 DUB activity” value in series [1] (5 μM Ub-aldehyde (low signal control)) is “approximately 95%”.

(Values after publication PMC7017600 (Antiviral research, 2019).)
